Earlier results on one compound are cited in patent US11691145B2, “Platform and method for multi-variable screening” (Wisconsin Alumni Research Foundation, priority 2018, dated 2023).

The data set deals with bacterial pathogens (infection). The note with it: phase 3 clinical trial.

Regarding `CO/N=C(\C(=O)N[C@@H]1C(=O)N2C(C(=O)O)=C(COC(C)=O)CS[C@H]12)c1csc(N)n1` [cefotaxime], for the setting “patients with a "resistant" antibiotic sensitivity test result”, the “patients who responded to the antibiotic therapy” value is recorded as 64%. For the setting “patients with a "sensitive" antibiotic sensitivity test result, best case scenario”, the “patients who would respond to the antibiotic therapy” value is 93%.
